From patent publication US9532553B2, “Process for treating with a chemical compound a body of water used in aquaculture” (SOLVAY SA, priority 2009, dated 2017)

What was measured:
[1] = tested on: salmon lice (Lepeophtheirus salmonis); details: Example 3: 1500 ppm hydrogen peroxide in 500 m^3 sea water, added in about 4.5 min, treatment continued 22.5 min, then flushed; infested Atlantic salmons
Atlantic salmons = details: Example 3: 1500 ppm hydrogen peroxide in 500 m^3 sea water, added in about 4.5 min via eductor nozzle agitation system, treatment continued 22.5 min
Protocol: The treatment was continued for 22.5 minutes then the treated water was flushed away and replaced by fresh seawater.
In Example 3, the body of water comprised additionally Atlantic salmons as living organisms, said salmons being infested with external parasites, i.e. salmon lice (Lepeophtheirus salmonis). The purpose of the test was to remove these parasites from the fish.

For `OO` [hydrogen peroxide], the “removal of salmon lice from the treated fish” value [1] was “effective in removing the salmon lice” and the “injury to the fish” value (Atlantic salmons) was “without injuring the fish”.
